Like-named read-outs stand apart in the source and are kept apart here.
How the values were obtained:
Assay type in all cases: cell-based
human TLR7 = target: T1, human TLR7 (Homo sapiens, UniProt Q9NYK1); experiment: TLR7 cellular reporter assay (HEK293, NFκB-luc); conditions: HEK293 transiently transfected with TLR7 and NFκB-luc; 6 hours incubation; lowest effective concentration
T1 construct: expressed in transfected cells; host or cells: HEK293
T1 sequence (Q9NYK1 27-1049): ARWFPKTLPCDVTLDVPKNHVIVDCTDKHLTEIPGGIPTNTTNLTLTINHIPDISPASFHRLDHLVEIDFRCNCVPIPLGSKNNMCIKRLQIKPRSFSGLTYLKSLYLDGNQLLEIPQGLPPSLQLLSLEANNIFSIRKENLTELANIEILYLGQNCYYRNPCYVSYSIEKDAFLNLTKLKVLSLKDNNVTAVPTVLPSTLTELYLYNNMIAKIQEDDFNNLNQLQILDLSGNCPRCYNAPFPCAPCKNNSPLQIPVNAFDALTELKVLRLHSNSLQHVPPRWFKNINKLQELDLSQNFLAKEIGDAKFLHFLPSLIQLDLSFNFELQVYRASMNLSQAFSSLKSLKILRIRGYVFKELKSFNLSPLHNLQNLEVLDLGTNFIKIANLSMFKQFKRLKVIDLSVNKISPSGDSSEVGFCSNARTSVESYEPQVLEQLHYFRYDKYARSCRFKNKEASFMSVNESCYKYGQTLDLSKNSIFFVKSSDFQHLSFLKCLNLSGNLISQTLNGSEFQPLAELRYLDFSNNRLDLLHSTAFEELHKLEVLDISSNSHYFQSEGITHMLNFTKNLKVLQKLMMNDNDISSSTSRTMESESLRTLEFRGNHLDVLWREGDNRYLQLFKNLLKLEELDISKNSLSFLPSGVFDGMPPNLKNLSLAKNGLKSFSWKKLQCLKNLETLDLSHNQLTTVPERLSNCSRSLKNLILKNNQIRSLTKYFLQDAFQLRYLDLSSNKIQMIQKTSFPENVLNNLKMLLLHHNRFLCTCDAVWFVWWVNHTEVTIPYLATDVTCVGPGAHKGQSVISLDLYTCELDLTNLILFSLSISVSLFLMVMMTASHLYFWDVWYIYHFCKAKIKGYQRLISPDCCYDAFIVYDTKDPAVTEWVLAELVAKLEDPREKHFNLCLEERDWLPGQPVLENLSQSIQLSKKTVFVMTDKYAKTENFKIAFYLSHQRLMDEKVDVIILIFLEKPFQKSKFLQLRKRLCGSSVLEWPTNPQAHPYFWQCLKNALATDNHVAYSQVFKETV
Experimental: (§1) The ability of compounds to activate human TLR7 and/or TLR8 was assessed in a cellular reporter assay using HEK293 cells transiently transfected with a TLR7 or TLR8 expression vector and NFκB-luc reporter construct.
(§2) Briefly, HEK293 cells were grown in culture medium (DMEM supplemented with 10% FCS and 2 mM Glutamine). For transfection of cells in 10 cm dishes, cells were detached with Trypsin-EDTA, transfected with a mix of CMV-TLR7 or TLR8 plasmid (750 ng), NFκB-luc plasmid (375 ng) and a transfection reagent and incubated overnight at 37° C. in a humidified 5% CO2 atmosphere. […] Thirty microliters of cells were then dispensed into each well in 384-well plates, where 10 μL of compound in 4% DMSO was already present. Following 6 hours incubation at 37° C., 5% CO2, the luciferase activity was determined by adding 15 μL of Steady Lite Plus substrate (Perkin Elmer) to each well and readout performed on a ViewLux ultraHTS microplate imager (Perkin Elmer). Dose response curves were generated from measurements performed in quadruplicates.

human TLR8 = target: T2, human TLR8 (Homo sapiens, UniProt Q9NR97); experiment: TLR8 cellular reporter assay (HEK293, NFκB-luc); conditions: HEK293 transiently transfected with TLR8 and NFκB-luc; 6 hours incubation; lowest effective concentration
T2 construct: expressed in transfected cells; host or cells: HEK293
T2 sequence (Q9NR97 27-1041): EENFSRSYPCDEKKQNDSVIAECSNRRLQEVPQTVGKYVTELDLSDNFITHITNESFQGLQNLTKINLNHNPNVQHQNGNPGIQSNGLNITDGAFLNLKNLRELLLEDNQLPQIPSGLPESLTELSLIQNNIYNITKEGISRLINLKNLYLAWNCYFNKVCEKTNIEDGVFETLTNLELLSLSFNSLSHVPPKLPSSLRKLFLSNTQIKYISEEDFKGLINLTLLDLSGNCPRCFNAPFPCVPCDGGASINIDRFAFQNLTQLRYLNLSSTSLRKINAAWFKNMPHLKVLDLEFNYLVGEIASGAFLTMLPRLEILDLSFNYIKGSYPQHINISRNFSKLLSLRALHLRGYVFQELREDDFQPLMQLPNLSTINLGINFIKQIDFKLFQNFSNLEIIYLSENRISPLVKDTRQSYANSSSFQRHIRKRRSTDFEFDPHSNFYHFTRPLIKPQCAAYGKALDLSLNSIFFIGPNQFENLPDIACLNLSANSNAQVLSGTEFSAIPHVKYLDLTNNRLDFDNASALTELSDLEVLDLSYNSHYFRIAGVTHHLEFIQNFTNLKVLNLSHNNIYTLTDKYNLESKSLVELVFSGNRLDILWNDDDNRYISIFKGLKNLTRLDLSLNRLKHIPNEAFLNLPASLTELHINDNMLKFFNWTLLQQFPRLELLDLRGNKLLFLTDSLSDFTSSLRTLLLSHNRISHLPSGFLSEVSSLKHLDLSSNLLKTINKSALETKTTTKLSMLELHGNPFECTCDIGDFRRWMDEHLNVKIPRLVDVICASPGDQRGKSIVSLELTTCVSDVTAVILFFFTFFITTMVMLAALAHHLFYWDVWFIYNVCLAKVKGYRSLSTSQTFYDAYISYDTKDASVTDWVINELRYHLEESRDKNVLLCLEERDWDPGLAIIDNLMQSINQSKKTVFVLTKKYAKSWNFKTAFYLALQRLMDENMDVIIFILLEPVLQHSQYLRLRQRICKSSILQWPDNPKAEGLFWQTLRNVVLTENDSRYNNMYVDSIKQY
Experimental: as §1, §2

[1] = system: interferon-stimulated responsive elements (ISRE); experiment: Activation of ISRE promoter elements by conditioned media from PBMC (HEK-ISREluc); conditions: Homo sapiens, read-out: HEK-ISRE luc (LEC)
Experimental: The potential of compounds to induce IFN-I was also evaluated by measuring the activation of interferon-stimulated responsive elements (ISRE) by conditioned media from PBMC. The ISRE element of sequence […] is highly responsive to the STAT1-STAT2-IRF9 transcription factor, activated upon binding of IFN-I to their receptor IFNAR (Clontech, PT3372-5W). The plasmid pISRE-Luc from Clontech (ref. 631913) contains 5 copies of this ISRE element, followed by the firefly luciferase ORF. A HEK293 cell line stably transfected with pISRE-Luc (HEK-ISREluc) was established to profile of the conditioned PBMC cell culture media.
Briefly, PBMCs were prepared from buffy coats of at least two donors using a standard Ficoll centrifugation protocol. Isolated PBMCs were resuspended in RPMI medium supplemented with 10% human AB serum and 2×10^5 cells/well were dispensed into 384-well plates containing compounds (70 μL total volume). After overnight incubation, 10 μL of supernatant was transferred to 384-well plates containing 5×10^3 HEK-ISREluc cells/well in 30 μL (plated the day before). Following 24 hours of incubation, activation of the ISRE elements was measured by assaying luciferase activity using 40 μL/well Steady Lite Plus substrate (Perkin Elmer) and measured with ViewLux ultraHTS microplate imager (Perkin Elmer). The stimulating activity of each compound on the HEK-ISREluc cells was reported as LEC value, defined as the compound concentration applied to the PBMCs resulting in a luciferase activity at least two fold above the standard deviation of the assay. The LEC in turn indicates the degree of ISRE activation on transfer of a defined amount of PBMC culture medium. Recombinant interferon α-2a (Roferon-A) was used as a standard control compound.

[2] = PBMC conditioned medium transferred to HEK-ISREluc cells, 24 hours, lowest effective concentration

Compound | Human TLR 7 (LEC) (human TLR7) [µM] | Human TLR 8 (LEC) (human TLR8) [µM] | minimal effective concentration [1, 2] [µM] | minimal effective concentration ([1]; PBMC, 24 h) [µM]
CCC[C@@H](CCO)Nc1nc(N)nnc1OCc1nccc(OC)c1OC [Compound 8] | 0.24 | 0.56 | 0.014 | –
CCCC[C@@H](CCO)Nc1nc(N)nnc1OC [Compound 12] | 7.8 | – | 2.72 | –
CCCCNc1nc(N)nnc1OCCCc1ccc(OC)cc1 [Compound 16] | 0.38 | 0.81 | 0.14 | –
CCCCNc1nc(N)nnc1OCc1ccccc1F [Compound 20] | 0.75 | – | – | 0.54
CCCCNc1nc(N)nnc1OCc1cccnc1 [Compound 21] | 1.71 | – | – | 0.14
CCCCNc1nc(N)nnc1OCCOC [Compound 22] | 4.75 | 1.0 | – | 0.41
CCCCNc1nc(N)nnc1OCCCN(C)C [Compound 24] | >25 | 0.1 | – | 0.17

The next lines start with results.

Human TLR 7 (LEC) (human TLR7) [µM] | Human TLR 8 (LEC) (human TLR8) [µM] | Compound | minimal effective concentration [1, 2] [µM] | minimal effective concentration ([1]; PBMC, 24 h) [µM]
2.94 | 1.93 | CCCCNc1nc(N)nnc1OCc1ccccc1 [Compound 15] | 1.85 | –
17.49 | – | CCCCNc1nc(N)nnc1OC [Compound 17] | 1.02 | –
8.27 | – | CCCCNc1nc(N)nnc1OC(C)C [Compound 18] | 0.53 | –
– | 0.64 | CCCCNc1nc(N)nnc1OCc1ccccc1OC [Compound 19] | 0.43 | –
0.17 | – | CCCCNc1nc(N)nnc1OCc1ccccn1 [Compound 23] | 0.14 | –

Reference: patent US9416114B2, “1,2,4-triazine derivatives for the treatment of viral infections” (CENTRE NATIONAL DE LA RECHERCHE SCIENTIFIQUE (CNRS), priority 2012, dated 2016)
